Measurements taken from patent US20110318273A1, “FLUORESCENT CONTRAST AGENTS” (GE HEALTHCARE AS, priority 2004, published 2011).

Assays:
[1] = Absorption spectrum of the reduced fluorochrome in phosphate-buffered saline (diode array spectrophotometer); assay type: physicochemical; conditions: for absorption in the visible region: reduced with sodium borohydride, diluted in phosphate-buffered saline, pH 7.4
Protocol: (§1) To 2 ml of a 1 mM solution of rhodamine 800 (Fluke, prod. No. 83701) in 0.1 M borate buffer, pH 8.5 was added approximately 5 mg of sodium borohydride. The mixture was shaken and left at room temperature for two hours. 40 microliters of the reduced solution was added to 960 μl of phosphate-buffered saline, pH 7.4. […] The spectrum of untreated rhodamine 800 (solid line) was recorded by exactly the same procedure. The sample of diluted, reduced fluorochrome was gently oxidized in air and its spectrum recorded (dashed line).
as §1, with “110 (Fluka,” for “800 (Fluke,”, “83695)” for “83701)”, “110” for “800”
as §1, with “fluorescein (Sigma,” for “rhodamine 800 (Fluke,”, “F-6377)” for “83701)”, “fluorescein” for “rhodamine 800”

[2] = Re-oxidation of the diluted, reduced fluorochrome in air, spectrum recorded; assay type: physicochemical; conditions: gently oxidized in air
Protocol: as §1
as §1, with “110 (Fluka,” for “800 (Fluke,”, “83695)” for “83701)”, “110” for “800”
as §1, with “fluorescein (Sigma,” for “rhodamine 800 (Fluke,”, “F-6377)” for “83701)”, “fluorescein” for “rhodamine 800”

[3] = Oxidation of reduced rhodamine 110 by hydrogen peroxide, increase in fluorescence; conditions: hydrogen peroxide 10 μM final; emission 538 nm, excitation 485 nm
Protocol: Rhodamine 110 was reduced as in Example 2. Hydrogen peroxide to a final concentration of 10 μM was added to a portion of the solution of reduced rhodamin 110, i.e. to dihydrorhodamin 110, and the increase in fluorescence was recorded at 538 nm (excitation at 485 nm) on a Thermo Fluoroscan Ascent FL fluorimeter.

Row | Structure (SMILES) | fluorescence following exposure to visible light [1] | absorption in the visible region [1] | optical properties after oxidation of the reduced fluorochrome [2] | oxidation by hydrogen peroxide (increase in fluorescence) [3]
1 | N#CC1c2cc3c4c(c2Oc2c1cc1c5c2CCCN5CCC1)CCCN4CCC3 [dihydro-rhodamine 800] | no fluorescence | losing nearly all absorption in the visible region | regaining its optical properties | –
2 | O=C(O)c1ccccc1C1c2ccc(O)cc2Oc2cc(O)ccc21 [dihydrofluorescein] | no fluorescence | losing nearly all absorption in the visible region | regaining its optical properties | –
3 | Nc1ccc2c(c1)Oc1cc(N)ccc1C2c1ccccc1C(=O)O [dihydro-rhodamine 110] | very little fluorescence | virtually no absorption in the visible region | regaining its optical properties | rapidly oxidised
